Our source for the IC50 and Activity values is ChEMBL document CHEMBL1139882, “Aurantiomides A-C, quinazoline alkaloids from the sponge-derived fungus Penicillium aurantiogriseum SP0-19” (J Nat Prod, 2007).

Data set [1] has as its system P388. Kind of data set: Cytotoxicity against P388 cells after 72 hrs by MTT assay. The format is cell-based, Mus musculus. As to conditions: for IC50: Mus musculus, P388, 72 h. (Formazan colour is commonly taken as a measure of viable cells.)
Data set [2] can be described thus: Cytotoxicity against BEL-7402 cells after 72 hrs by MTT assay. Type of data set: cell-based, Homo sapiens.
In data set [3] the test system is HL-60. As to the kind of experiment: Cytotoxicity against HL60 cells after 72 hrs by MTT assay. Type of data set: cell-based, Homo sapiens.
Data set [4] concerns A549. As to the kind of experiment: Cytotoxicity against A549 cells after 72 hrs by MTT assay. The format is cell-based. The note with it: human, a549, 72 h.

Structures are written as SMILES. Values after ≈ are worked out from the molar mass of the structure shown.

Broadly, the IC50 is the concentration that gives 50% inhibition.

Turning to `CC(C)/C=C1\NC(=O)[C@H](CCC(N)=O)n2c1nc1ccccc1c2=O` [AURANTIOMIDE C], the IC50 in data set [1] was determined as 48 µg/mL (≈ 141 µM); in data set [2] (Homo sapiens, Bel-7402, 72 h) it was 48 µg/mL (≈ 141 µM).
`CO[C@@]1(CC(C)C)NC(=O)[C@H](CCC(N)=O)n2c1nc1ccccc1c2=O` [AURANTIOMIDE A]: the Activity result in data set [3] (human, hl-60, 72 h) is on record as “Not Active”; in data set [1] (mouse, p388, 72 h), “Not Active”; in data set [2] (human, bel-7402, 72 h) it was “Not Active”; in data set [4], “Not Active”.
As to `CC(C)C[C@]1(O)NC(=O)[C@H](CCC(N)=O)n2c1nc1ccccc1c2=O` [AURANTIOMIDE B], the IC50 in data set [3] (Homo sapiens, HL-60, 72 h) is 52 µg/mL (≈ 145 µM); in data set [1] it was 54 µg/mL (≈ 151 µM).
